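Dose response: 5 concentrations. Exposure: 48 h. Format: 96-well plates. Endpoint: linear interpolation; highest concentration if not reached. At the GI50, growth is halved.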 The source made the active and inactive calls. Cut-off read from the data, not from the text of the source: active = GI50 up to about 1.1 µM and inactive = higher.
Legend:
Assay in all cases: inhibition of tumour cell growth, NCI panel, 48 h
COLO 205 = test system: COLO 205
SF-268 = test system: SF-268
OVCAR-4 = test system: OVCAR-4
HOP-62 = test system: HOP-62
UO-31 = test system: UO-31
SNB-75 = test system: SNB-75
CAKI-1 = test system: CAKI-1
Hs-578T = test system: Hs-578T
M14 = test system: M14
TK-10 = test system: TK-10
HOP-92 = test system: HOP-92
MDA-MB-231 = test system: MDA-MB-231
OVCAR-3 = test system: OVCAR-3
DU-145 = test system: DU-145
MDA-N = test system: MDA-N
KM12 = test system: KM12
SF-539 = test system: SF-539
BT-549 = test system: BT-549
SK-MEL-28 = test system: SK-MEL-28

Measured: GI50

Cc1c(C(=O)O)n2c(C)nnc2c2ccccc12
inactive: COLO 205 > 100 µM | SF-268 > 100 µM | OVCAR-4 > 100 µM | HOP-62 > 100 µM | UO-31 61.5 µM | SNB-75 36 µM | CAKI-1 > 100 µM | Hs-578T > 100 µM | M14 > 100 µM | TK-10 > 100 µM | HOP-92 > 100 µM | MDA-MB-231 > 100 µM | OVCAR-3 > 100 µM | DU-145 > 100 µM | MDA-N > 100 µM | KM12 > 100 µM | SF-539 > 100 µM | BT-549 > 100 µM | SK-MEL-28 > 100 µM

CC(=O)c1sc2c(c1OC(=O)c1ccccc1)c(=O)n(-c1ccccc1)c(=S)n2-c1ccccc1
inactive: COLO 205 13.6 µM | SF-268 4.97 µM | OVCAR-4 20.4 µM | HOP-62 15 µM | UO-31 4.09 µM | SNB-75 2.26 µM | CAKI-1 8.43 µM | Hs-578T 3.74 µM | M14 3.4 µM | TK-10 24 µM | HOP-92 1.69 µM | MDA-MB-231 7.93 µM | OVCAR-3 17.9 µM | DU-145 28.1 µM | MDA-N 6.4 µM | KM12 33.1 µM | SF-539 2.32 µM | BT-549 > 10 µM | SK-MEL-28 3.89 µM

CN(C)CC1CCC/C(=C\c2ccc(N(C)C)cc2)C1=O (centres undefined)
inactive: COLO 205 2.58 µM | SF-268 1.78 µM | OVCAR-4 2.15 µM | HOP-62 18.8 µM | UO-31 10.4 µM | SNB-75 17 µM | CAKI-1 1.8 µM | Hs-578T 3.58 µM | M14 3.55 µM | TK-10 1.97 µM | HOP-92 3.33 µM | MDA-MB-231 4.78 µM | OVCAR-3 2.84 µM | DU-145 17.1 µM | MDA-N 7.28 µM | KM12 1.44 µM | SF-539 15.3 µM | BT-549 16.2 µM | SK-MEL-28 5.64 µM

COC(=O)C(Cc1c[nH]c2ccccc12)NP(=O)(O)OCC1OC(n2cc(I)c(=O)[nH]c2=O)CC1O (centres undefined)
inactive: COLO 205 > 100 µM | SF-268 > 100 µM | OVCAR-4 > 100 µM | HOP-62 > 100 µM | UO-31 > 100 µM | SNB-75 > 100 µM | CAKI-1 > 100 µM | Hs-578T > 100 µM | M14 > 100 µM | TK-10 > 100 µM | HOP-92 > 100 µM | MDA-MB-231 > 100 µM | OVCAR-3 > 100 µM | DU-145 > 100 µM | MDA-N > 100 µM | KM12 > 100 µM | SF-539 > 100 µM | BT-549 > 100 µM | SK-MEL-28 > 100 µM

Cn1c(-c2ccccc2)cc(-c2ccc3c(c2)OCO3)c1-c1ccsc1
inactive: COLO 205 > 100 µM | SF-268 > 100 µM | OVCAR-4 > 100 µM | HOP-62 > 100 µM | UO-31 > 100 µM | SNB-75 > 100 µM | CAKI-1 > 100 µM | Hs-578T > 100 µM | M14 > 100 µM | TK-10 > 100 µM | HOP-92 > 100 µM | MDA-MB-231 > 100 µM | OVCAR-3 > 100 µM | DU-145 > 100 µM | MDA-N > 100 µM | KM12 > 100 µM | SF-539 > 100 µM | BT-549 > 100 µM | SK-MEL-28 > 100 µM

CSc1ccc(NC(=O)C2CCCCC2C(=O)O)cc1 (centres undefined)
inactive: COLO 205 > 100 µM | SF-268 > 100 µM | OVCAR-4 > 100 µM | HOP-62 > 100 µM | UO-31 > 100 µM | SNB-75 > 100 µM | CAKI-1 > 100 µM | Hs-578T > 100 µM | M14 > 100 µM | TK-10 > 100 µM | HOP-92 > 100 µM | MDA-MB-231 > 100 µM | OVCAR-3 > 100 µM | DU-145 > 100 µM | MDA-N > 100 µM | KM12 > 100 µM | SF-539 > 100 µM | BT-549 > 100 µM | SK-MEL-28 > 100 µM

C#CCOCC12C=CC(O1)C1COC(=O)C12 (centres undefined)
inactive: COLO 205 > 100 µM | SF-268 > 100 µM | OVCAR-4 > 100 µM | HOP-62 > 100 µM | UO-31 > 100 µM | SNB-75 > 100 µM | CAKI-1 > 100 µM | Hs-578T > 100 µM | M14 > 100 µM | TK-10 > 100 µM | HOP-92 7.14 µM | MDA-MB-231 > 100 µM | OVCAR-3 > 100 µM | DU-145 > 100 µM | MDA-N > 100 µM | KM12 > 100 µM | SF-539 > 100 µM | BT-549 > 100 µM | SK-MEL-28 > 100 µM

CCOC(=O)c1csc(-c2cn(C)c3c2C(=O)C(OC)=CC3=O)n1
inactive: COLO 205 26.9 µM | SF-268 > 62.5 µM | OVCAR-4 42.8 µM | HOP-62 23.2 µM | UO-31 44.4 µM | SNB-75 30.3 µM | CAKI-1 > 91.2 µM | Hs-578T 21.2 µM | M14 14 µM | TK-10 > 100 µM | HOP-92 40.5 µM | MDA-MB-231 18.3 µM | OVCAR-3 5.82 µM | DU-145 6.05 µM | MDA-N 15.6 µM | KM12 20 µM | SF-539 27.6 µM | BT-549 > 40.3 µM | SK-MEL-28 32.6 µM

CC(C)=CCC/C(C)=C/Cc1cc(/C=C/c2cc(O)c(CC=C(C)C)c(O)c2)cc(O)c1O [MAPPAIN]
inactive: COLO 205 17.3 µM | SF-268 2.64 µM | OVCAR-4 1.94 µM | HOP-62 11.4 µM | UO-31 1.29 µM | SNB-75 2.58 µM | CAKI-1 5.42 µM | Hs-578T 10.8 µM | M14 4.26 µM | TK-10 3.32 µM | HOP-92 3.93 µM | MDA-MB-231 11.2 µM | OVCAR-3 1.99 µM | DU-145 13.7 µM | MDA-N 2.41 µM | KM12 4.29 µM | SF-539 3.79 µM | BT-549 3.29 µM | SK-MEL-28 5.18 µM

CC(Cl)CN1c2ccccc2Sc2ccc(Cl)cc21 (centres undefined)
inactive: COLO 205 > 10 µM | SF-268 > 10 µM | OVCAR-4 > 10 µM | HOP-62 > 10 µM | UO-31 > 10 µM | SNB-75 > 10 µM | CAKI-1 > 10 µM | Hs-578T > 10 µM | M14 > 10 µM | TK-10 > 10 µM | HOP-92 > 10 µM | MDA-MB-231 > 10 µM | OVCAR-3 > 10 µM | DU-145 > 10 µM | MDA-N > 10 µM | KM12 > 10 µM | SF-539 > 10 µM | BT-549 > 10 µM | SK-MEL-28 > 10 µM

CC(C)C1CCC(=O)CC1CCCCC1CC(=O)CC1O[Si](C)(C)C(C)(C)C (centres undefined)
inactive: COLO 205 4.21 µM | SF-268 2.54 µM | OVCAR-4 12.7 µM | HOP-62 7.06 µM | UO-31 7.66 µM | SNB-75 13.2 µM | CAKI-1 5.58 µM | Hs-578T 3.03 µM | M14 6.1 µM | TK-10 10.5 µM | HOP-92 3.3 µM | MDA-MB-231 14.6 µM | OVCAR-3 14.4 µM | DU-145 17 µM | MDA-N 4.16 µM | KM12 2.76 µM | SF-539 4.66 µM | BT-549 4.25 µM | SK-MEL-28 5.92 µM

Reference: ChEMBL document CHEMBL1201862, “PubChem BioAssay data set” (2004)
